Laboratory results taken from patent publication US20170369470A1, “Cyclic Compounds and Uses Thereof” (Karyopharm Therapeutics Inc., priority 2014, published 2017).

Columns and labels:
Format in all cases: cell-based
[1] = tested on: MS751 cells; assay: MTT cell proliferation assay, MS751 cells; conditions: MS751 cells (human cervix squamous cell carcinoma metastasis); incubation approximately 64-72 hours; read-out: MTT Assay IC50 MS 751
Description: (§1) The MTT cell proliferation assay was used to study the cytotoxic properties of the compounds. The assay was performed according to the method described by Roche Molecular Biochemicals, with minor modifications. The assay is based on the cleavage of the tetrazolium salt, MTT, in the presence of an electron-coupling reagent. The water-insoluble formazan salt produced must be solubilized in an additional step. Cells grown in a 96-well tissue culture plate were incubated with the MTT solution for approximately 4 hours. After this incubation period, a water-insoluble formazan dye formed. After solubilization, the formazan dye was quantitated using a scanning multi-well spectrophotometer (ELISA reader). […] The cells were seeded at 5,000-10,000 cells in each well of 96-well plate in 100 μL of fresh culture medium and were allowed to attach overnight. The stock solutions of the compounds were diluted in 100 μL cell culture medium to obtain eight concentrations of each test compound, ranging from 1 nM to 30 μM. […] All optical densities were measured at 490 nm using a Vmax Kinetic Microplate Reader (Molecular Devices). In most cases, the assay was performed in duplicate and the results were presented as a mean percent inhibition to the negative control±SE. The following formula was used to calculate the percent of inhibition: Inhibition (%)=(1−(ODo/OD))×100.
(§2) The compounds were tested against MS751, Z138 and 3T3 cells. The MS751 cell line is derived from a metastasis to lymph node of human cervix from a patient diagnosed with squameous cell carcinoma of the cervix. The Z138 cell line is a mature B-cell acute lymphoblastic leukemia cell line derived from a patient with chronic lumphocytic leukemia. 3T3 cells are standard fibroblast cells; they were originally isolated from Swiss mouse embryo tissue.

[2] = tested on: Z138 cells; assay: MTT cell proliferation assay, Z138 cells; conditions: Homo sapiens, Z-138; Z138 cells (mantle cell lymphoma line); incubation approximately 64-72 hours
Description: as §1, §2

[3] = tested on: 3T3 cells; assay: MTT cell proliferation assay, 3T3 cells; conditions: NIH3T3; 3T3 fibroblast cells (Swiss mouse embryo); incubation approximately 64-72 hours
Description: as §1, §2

SMILES	IC50 [1] [µM]	IC50 [2] [µM]	IC50 [3] [µM]
CC1(O)CCN(C(=O)c2ccc(-c3cc(C(F)(F)F)c4sc(CNC(=O)/C=C/c5ccc(N)nc5)cc4c3)cc2)CC1 [compound 528, (E)-3-(6-aminopyridin-3-yl)-N-((5-(4-(4-hydroxy-4-methylpiperidine-1-carbonyl)phenyl)-7-(trifluoromethyl)benzo[b]thiophen-2-yl)methyl)acrylamide]	1 to 5	< 1	> 10
CC1(C)CN(C(=O)c2ccc(-c3cc(C(F)(F)F)c4sc(CNC(=O)/C=C/c5ccc(N)nc5)cc4c3)nc2)CCO1 [compound 514, (E)-3-(6-aminopyridin-3-yl)-N-((5-(5-(2,2-dimethylmorpholine-4-carbonyl)pyridin-2-yl)-7-(trifluoromethyl)benzo[b]thiophen-2-yl)methyl)acrylamide]	1 to 5	< 1	> 10
Nc1ccc(/C=C/C(=O)NCc2cc3cc(-c4ccc(C(=O)N5CC(F)(F)C5)cc4)cc(C(F)(F)F)c3s2)cn1 [compound 524, (E)-3-(6-aminopyridin-3-yl)-N-((5-(4-(3,3-difluoroazetidine-1-carbonyl)phenyl)-7-(trifluoromethyl)benzo[b]thiophen-2-yl)methyl)acrylamide]	> 10	> 10	> 10
CC1(C)CN(C(=O)c2ccc(-c3cc(C(F)(F)F)c4sc(CNC(=O)/C=C/c5ccc(N)nc5)cc4c3)cc2)CCO1 [compound 526, (E)-3-(6-aminopyridin-3-yl)-N-((5-(4-(2,2-dimethylmorpholine-4-carbonyl)phenyl)-7-(trifluoromethyl)benzo[b]thiophen-2-yl)methyl)acrylamide]	1 to 5	< 1	> 10
Nc1ccc(/C=C/C(=O)NCc2cc3cc(-c4ccc(C(=O)N5CCC(F)CC5)cn4)cc(C(F)(F)F)c3s2)cn1 [compound 517, (E)-3-(6-aminopyridin-3-yl)-N-((5-(5-(4-fluoropiperidine-1-carbonyl)pyridin-2-yl)-7-(trifluoromethyl)benzo[b]thiophen-2-yl)methyl)acrylamide]	1 to 5	1 to 5	> 10
Nc1ccc(/C=C/C(=O)NCc2cc3cc(-c4ccc(C(=O)N5CCC(F)(F)CC5)cc4)cc(-c4ccc(F)cc4)c3s2)cn1 [compound 536, (E)-3-(6-aminopyridin-3-yl)-N-((5-(4-(4,4-difluoropiperidine-1-carbonyl)phenyl)-7-(4-fluorophenyl)benzo[b]thiophen-2-yl)methyl)acrylamide]	< 1	< 1	> 10
Nc1ccc(/C=C/C(=O)NCc2nc3cc(-c4ccc(C(=O)N5CCC(F)(F)CC5)cn4)cc(C(F)(F)F)c3[nH]2)cn1 [compound 530, (E)-3-(6-aminopyridin-3-yl)-N-((5-(5-(4,4-difluoropiperidine-1-carbonyl)pyridin-2-yl)-7-(trifluoromethyl)-1H-benzo[d]imidazol-2-yl)methyl)acrylamide]	> 10	> 10	> 10
Nc1ccc(/C=C/C(=O)NCc2cc3cc(-c4ccc(C(=O)N5CCC(O)(C(F)(F)F)CC5)cn4)cc(C(F)(F)F)c3s2)cn1 [compound 505, (E)-3-(6-aminopyridin-3-yl)-N-((5-(5-(4-hydroxy-4-(trifluoromethyl)piperidine-1-carbonyl)pyridin-2-yl)-7-(trifluoromethyl)benzo[b]thiophen-2-yl)methyl)acrylamide]	1 to 5	1 to 5	> 10
Cn1c(CNC(=O)/C=C/c2ccc(N)nc2)nc2c(C(F)(F)F)cc(-c3ccc(C(=O)N4CCC(F)(F)CC4)cn3)cc21 [compound 531, (E)-3-(6-aminopyridin-3-yl)-N-((6-(5-(4,4-difluoropiperidine-1-carbonyl)pyridin-2-yl)-1-methyl-4-(trifluoromethyl)-1H-benzo[d]imidazol-2-yl)methyl)acrylamide]	> 10	> 10	> 10
Nc1ccc(/C=C/C(=O)NCc2cc3cc(-c4ccc(C(=O)N5CCC(O)(C(F)(F)F)CC5)cc4)cc(C(F)(F)F)c3s2)cn1 [compound 521, (E)-3-(6-aminopyridin-3-yl)-N-((5-(4-(4-hydroxy-4-(trifluoromethyl)piperidine-1-carbonyl)phenyl)-7-(trifluoromethyl)benzo[b]thiophen-2-yl)methyl)acrylamide]	1 to 5	1 to 5	> 10
Nc1ccc(/C=C/C(=O)NCc2nc3cc(-c4ccc(C(=O)N5CCC(F)(F)CC5)cn4)cc(C(F)(F)F)c3s2)cn1 [compound 532, (E)-3-(6-aminopyridin-3-yl)-N-((5-(5-(4,4-difluoropiperidine-1-carbonyl)pyridin-2-yl)-7-(trifluoromethyl)benzo[d]thiazol-2-yl)methyl)acrylamide]	< 1	< 1	> 10
Nc1ccc(/C=C/C(=O)NCc2cc3cc(-c4ccc(C(=O)N5CC[C@H](F)C5)cn4)cc(C(F)(F)F)c3s2)cn1 [compound 513, (S,E)-3-(6-aminopyridin-3-yl)-N-((5-(5-(3-fluoropyrrolidine-1-carbonyl)pyridin-2-yl)-7-(trifluoromethyl)benzo[b]thiophen-2-yl)methyl)acrylamide]	1 to 5	1 to 5	5 to 10
Nc1ccc(/C=C/C(=O)NCc2cc3cc(-c4ccc(C(=O)N5CCC(F)CC5)cc4)cc(C(F)(F)F)c3s2)cn1 [compound 529, (E)-3-(6-aminopyridin-3-yl)-N-((5-(4-(4-fluoropiperidine-1-carbonyl)phenyl)-7-(trifluoromethyl)benzo[b]thiophen-2-yl)methyl)acrylamide]	> 10	> 10	> 10
Nc1ccc(/C=C/C(=O)NCc2cc3cc(-c4ccc(C(=S)N5CCC(F)(F)CC5)cn4)cc(C(F)(F)F)c3s2)cn1 [compound 504, (E)-3-(6-aminopyridin-3-yl)-N-((5-(5-(4,4-difluoropiperidine-1-carbonothioyl)pyridin-2-yl)-7-(trifluoromethyl)benzo[b]thiophen-2-yl)methyl)acrylamide]	< 1	< 1	> 10
Nc1ccc(/C=C/C(=O)NCc2nc3cc(-c4ccc(C(=O)N5CCC(F)(F)CC5)cc4)cc(-c4ccc(F)cc4)c3s2)cn1 [compound 535, (E)-3-(6-aminopyridin-3-yl)-N-((5-(4-(4,4-difluoropiperidine-1-carbonyl)phenyl)-7-(4-fluorophenyl)benzo[d]thiazol-2-yl)methyl)acrylamide]	1 to 5	1 to 5	> 10
CC1(F)CCN(C(=O)c2ccc(-c3cc(C(F)(F)F)c4sc(CNC(=O)/C=C/c5ccc(N)nc5)cc4c3)cc2)C1 (stereo not drawn) [compound 522, (E)-3-(6-aminopyridin-3-yl)-N-((5-(4-(3-fluoro-3-methylpyrrolidine-1-carbonyl)phenyl)-7-(trifluoromethyl)benzo[b]thiophen-2-yl)methyl)acrylamide]	5 to 10	1 to 5	> 10
Nc1ccc(/C=C/C(=O)NCc2cc3cc(-c4ccc(C(=O)N5CCC(F)(F)C5)cc4)cc(C(F)(F)F)c3s2)cn1 [compound 520, (E)-3-(6-aminopyridin-3-yl)-N-((5-(4-(3,3-difluoropyrrolidine-1-carbonyl)phenyl)-7-(trifluoromethyl)benzo[b]thiophen-2-yl)methyl)acrylamide]	5 to 10	1 to 5	> 10
